Measured values: publication PMC12108179, “Porcine β-Defensin 2 Expressed in Pichia pastoris Alleviates Enterotoxigenic Escherichia coli-Induced Intestinal Injury and Inflammatory Response in Mice” (Animals : an Open Access Journal from MDPI, 2025)
Where no end group is shown, it is not given here.

Experiments:
[1] = system: ETEC7; experiment: ETEC7-infected mouse model: ileum morphology (HE staining); format: in vivo; settings: ETEC7-infected ICR mice, 7 dpi, n = 6/group
Description: (§1) The animal experiment was approved by the Animal Ethics and Welfare Committee of Huazhong Agricultural University, Wuhan, China (HZAUMO-2023-0264). The animal model was established as in our previous experiment. Female ICR mice (3–4 weeks old) were obtained from the Laboratory Animals Center of Huazhong Agricultural University. After 5 days of adaptation, 36 mice were randomly assigned into 6 groups (n = 6/group), namely, a control group (only phosphate-buffered saline (PBS) treatment), the ETEC7 group (ETEC7 and PBS treatment), the COL group (ETEC7 and 9000 U colistin sulfate treatment), the HP group (ETEC7 and 16 AU rPBD2 treatment), the MP group (ETEC7 and 8 AU rPBD2 treatment), and the LP group (ETEC7 and 4 AU rPBD2 treatment). The mice were fed antibiotics, including kanamycin (400 mg/L), gentamicin (35 mg/L), vancomycin (45 mg/L), metronidazole (215 mg/L), and colistin (850 U/mL), in drinking water for 72 h and were then fed normal water for another 24 h. All mice were fasted for 12 h and then were orally gavaged with 200 μL 3% NaHCO3 30 min prior to the challenge with 10^9 CFU of ETEC7. The mice were orally infected with ETEC7 once a day for 3 days. […] The control and ETEC7 groups were administrated with the same volume of PBS. All mice were treated with PBS, colistin sulfate, or rPBD2 for 7 continuous days.
(§2) Body weight change was calculated as ((final body weight − initial body weight)/initial body weight) × 100%. Diarrhea scores were recorded at 1, 3, 5, and 7 days post infection (dpi) based on the following scoring criteria: (1) normal stool: 0 point; (2) color change/consistency: 1 point; (3) presence of wet tail or mucosa: 2 points; (4) watery stool: 3 points. A score of 1 was considered diarrhea. Fresh stools and 1 cm colon were collected and suspended in sterile PBS. Ten-fold serial dilutions of stool or colon homogenate were plated on MacConkey plates containing 100 μg/mL ampicillin. […] Intestine water content (intestine/carcass ratio) was measured as described previously. The cecum index was calculated as cecum weight (g)/body weight (g). […]

[2] = system: ETEC7; experiment: ETEC7-infected mouse model: clinical symptoms (body weight, diarrhea score, intestine/carcass ratio, cecum index); format: in vivo, ICR mice; settings: 9000 U orally for 7 days, n = 6/group
Description: as §1, §2

[3] = system: IL-10; experiment: ETEC7-infected mouse model: serum cytokine ELISA; format: in vivo; settings: ETEC7-infected ICR mice, 9000 U orally for 7 days, 7 dpi, among the groups, p > 0.05, n = 6/group
Description: as §1, §2

[4] = system: TNF-α; experiment: ETEC7-infected mouse model: serum cytokine ELISA; format: in vivo; settings: ETEC7-infected ICR mice, 9000 U (COL group) orally for 7 days, 7 dpi, p < 0.05, n = 6/group
Description: as §1, §2

[5] = system: IL-6; experiment: ETEC7-infected mouse model: serum cytokine ELISA; format: in vivo; settings: ETEC7-infected ICR mice, 9000 U (COL group) orally for 7 days, 7 dpi, p < 0.05, n = 6/group
Description: as §1, §2

[6] = system: E. coli K88; experiment: ETEC7-infected mouse model: E. coli loads in stool and colon; format: in vivo; settings: ETEC7-infected ICR mice, COL group, 9000 U orally for 7 days, p < 0.05, n = 6/group
Description: The animal experiment was approved by the Animal Ethics and Welfare Committee of Huazhong Agricultural University, Wuhan, China (HZAUMO-2023-0264). The animal model was established as in our previous experiment. Female ICR mice (3–4 weeks old) were obtained from the Laboratory Animals Center of Huazhong Agricultural University. After 5 days of adaptation, 36 mice were randomly assigned into 6 groups (n = 6/group), namely, a control group (only phosphate-buffered saline (PBS) treatment), the ETEC7 group (ETEC7 and PBS treatment), the COL group (ETEC7 and 9000 U colistin sulfate treatment), the HP group (ETEC7 and 16 AU rPBD2 treatment), the MP group (ETEC7 and 8 AU rPBD2 treatment), and the LP group (ETEC7 and 4 AU rPBD2 treatment). […]
as §2, with “points.” for “points. A score of 1 was considered diarrhea. Fresh stools and 1 cm colon were collected and suspended in sterile PBS. Ten-fold serial dilutions of stool or colon homogenate were plated on MacConkey plates containing 100 μg/mL ampicillin.”

[7] = in the presence of 150 mM NaCl or 2.5 mM CaCl2; cited from earlier work
Description: It has been reported that PBD2 has antibacterial activity against Gram-positive and -negative bacteria. […] When AMPs are used in the animal industry, many factors, including temperature, pH, enzymes, and salt ions, may affect their activities. […] This may allow crude rPBD2 to endure the ...

[8] = 9000 U (COL group) orally for 7 days, p < 0.05

Substance	VH/CD (villus height/crypt depth, ileum) [1, 8]	villus height (ileum) [1, 8]	crypt depth (ileum) ([1]; 9000 U orally for 7 days, among the groups, p > 0.05)	diarrhea scores ([2]; ETEC7-infected ICR mice, 1, 3, 5, 7 dpi, vs ETEC7 group)	cecum index ([2]; ETEC7-infected ICR mice, 7 dpi, among the groups)	final body weight ([2]; female ICR mice, ETEC7 10^9 CFU orally once a day for 3 days, 7 dpi, among groups, p > 0.05)	serum IL-10 levels [3]	serum TNF-α levels [4]	serum IL-6 levels [5]	colonized numbers of E. coli K88 in the colon ([6]; 7 dpi)	bacterial loads in feces ([6]; vs ETEC7 group)	antibacterial activity in the presence of salts [7]
colistin sulfate	significantly increase	significantly increase	no significant differences	relative lower diarrhea scores but without significant differences	no significant differences	no significant differences	no significant differences	significantly decrease	could decrease the levels of IL-6	lower than those in the ETEC7 group	significantly decreased	
synthetic human β-defensin 3 (hBD-3): synthetic human β-defensin 3, literature comparison (GIINTLQKYYCRVRGGRCAVLSCLPKEEQIGKCSTRGRKCCRRKK; ends and bridges not checked; cysteine pairing not given here; UniProt P81534 23-67, looked up)												completely abolished
